The target of one experiment is T1, CRBN / ASS1 (Homo sapiens, UniProt Q96SW2).
T1 construct: expressed in transfected cells; host or cells: HEK293T
Put plainly: ViroTrap (gag-CRBN bait) with LC-MS/MS: molecular glue-induced recruitment of endogenous ASS1 to CRBN in virus-like particles. It counts as cell-based. The text has this: In this study we evaluated the use of ViroTrap to identify molecular glue-induced endogenous (neo)substrates of CRBN in HEK293T cells. For this purpose, we used a previously described method known as ViroTrap (Eyckerman, et al. “Trapping mammalian protein complexes in viral particles,” Nature Communications 7: 11416 (2016); Titeca, et al. “Analyzing trapped protein complexes by Virotrap and SFINX.” Nature Protocols 12.5 (2017): 881). With this method, CRBN is expressed as a fusion protein with the viral protein HIV-GAG. HIV-GAG, when expressed in cells, such as HEK293T, is capable of triggering the formation of virus-like particles that bud off the cells. In the particle, the HIV-GAG protein is oriented towards the center of the particle. […] In the event the GAG-CRBN fusion interacts with proteins inside the cells, such proteins are dragged/trapped along with GAG-CRBN into the virus-like particles. In this manner, endogenous proteins that interact with CRBN, in presence or absence of a CRBN-ligand, can be identified. This is achieved by lysis of the particle and a standard mass-spectrometry analysis of tryptic digest of the sample. Subtractive analysis will then identify proteins that are specifically associated with the particle in response to a CRBN-ligand such as a molecular glue. […] Twenty-four hours after compound addition, virus-like particles (VLPs) were isolated from the cell supernatant using anti-Flag coated magnetobeads. After elution from the beads using Flag peptide, purified VLPs were lysed, and the protein content was digested overnight with trypsin. The peptide samples were analyzed through LC-MS/MS and label-free quantification data (LFQ intensities) from triplicate samples was processed using the MaxQuant software package and a volcano plot showing p-value (resulting from a two-sided t-test corrected for multiple testing; FDR 0.05%) versus LFQ intensity fold change (FIG. 1A-C) was generated with the Perseus tool.

A further experiment concerns the target FKBP12 / PPP3CA (Homo sapiens, UniProt P62942). In words: ViroTrap (gag-FKBP12 bait) with LC-MS/MS: FK506-induced binding of PPP3CA (calcineurin catalytic subunit) to FKBP12. In kind it is cell-based. Particulars: HEK293T cells.
In experiment [1] the target is PPP3CA, a calcineurin catalytic subunit, endogenous (UniProt Q08209). Put plainly: ViroTrap: gag-FKBP12 VLPs from HEK293T cells, LC-MS/MS label-free quantification; FK506 1 µM versus DMSO control.

Read-outs that look alike come from different tables or passages of the source.

T1 sequence (Q96SW2 whole entry, species assumed): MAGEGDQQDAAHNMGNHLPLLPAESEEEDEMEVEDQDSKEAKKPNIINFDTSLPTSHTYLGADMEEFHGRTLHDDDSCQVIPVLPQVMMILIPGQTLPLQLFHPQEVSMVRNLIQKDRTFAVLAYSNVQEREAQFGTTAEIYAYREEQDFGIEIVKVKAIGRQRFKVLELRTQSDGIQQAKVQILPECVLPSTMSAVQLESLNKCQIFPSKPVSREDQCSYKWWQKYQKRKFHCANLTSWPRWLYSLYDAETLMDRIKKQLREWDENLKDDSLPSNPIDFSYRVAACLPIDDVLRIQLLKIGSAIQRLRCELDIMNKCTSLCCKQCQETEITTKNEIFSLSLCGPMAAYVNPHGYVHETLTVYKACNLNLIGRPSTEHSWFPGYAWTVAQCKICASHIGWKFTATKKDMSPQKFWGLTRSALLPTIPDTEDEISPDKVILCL
T1 sequence (P00966 whole entry partner, species assumed): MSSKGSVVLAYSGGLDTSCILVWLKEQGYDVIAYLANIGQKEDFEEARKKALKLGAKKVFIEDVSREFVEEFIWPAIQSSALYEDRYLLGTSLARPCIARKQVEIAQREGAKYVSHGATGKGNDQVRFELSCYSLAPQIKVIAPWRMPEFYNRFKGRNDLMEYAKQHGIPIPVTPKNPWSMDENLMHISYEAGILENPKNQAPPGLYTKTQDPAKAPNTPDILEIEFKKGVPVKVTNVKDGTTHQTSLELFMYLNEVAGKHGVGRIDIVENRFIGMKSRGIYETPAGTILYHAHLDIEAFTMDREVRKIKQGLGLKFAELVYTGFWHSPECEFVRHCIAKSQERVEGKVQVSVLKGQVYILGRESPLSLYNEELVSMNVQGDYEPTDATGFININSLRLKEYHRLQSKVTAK
T1 sequence (Q16531 2-1140 partner limits assumed, species assumed): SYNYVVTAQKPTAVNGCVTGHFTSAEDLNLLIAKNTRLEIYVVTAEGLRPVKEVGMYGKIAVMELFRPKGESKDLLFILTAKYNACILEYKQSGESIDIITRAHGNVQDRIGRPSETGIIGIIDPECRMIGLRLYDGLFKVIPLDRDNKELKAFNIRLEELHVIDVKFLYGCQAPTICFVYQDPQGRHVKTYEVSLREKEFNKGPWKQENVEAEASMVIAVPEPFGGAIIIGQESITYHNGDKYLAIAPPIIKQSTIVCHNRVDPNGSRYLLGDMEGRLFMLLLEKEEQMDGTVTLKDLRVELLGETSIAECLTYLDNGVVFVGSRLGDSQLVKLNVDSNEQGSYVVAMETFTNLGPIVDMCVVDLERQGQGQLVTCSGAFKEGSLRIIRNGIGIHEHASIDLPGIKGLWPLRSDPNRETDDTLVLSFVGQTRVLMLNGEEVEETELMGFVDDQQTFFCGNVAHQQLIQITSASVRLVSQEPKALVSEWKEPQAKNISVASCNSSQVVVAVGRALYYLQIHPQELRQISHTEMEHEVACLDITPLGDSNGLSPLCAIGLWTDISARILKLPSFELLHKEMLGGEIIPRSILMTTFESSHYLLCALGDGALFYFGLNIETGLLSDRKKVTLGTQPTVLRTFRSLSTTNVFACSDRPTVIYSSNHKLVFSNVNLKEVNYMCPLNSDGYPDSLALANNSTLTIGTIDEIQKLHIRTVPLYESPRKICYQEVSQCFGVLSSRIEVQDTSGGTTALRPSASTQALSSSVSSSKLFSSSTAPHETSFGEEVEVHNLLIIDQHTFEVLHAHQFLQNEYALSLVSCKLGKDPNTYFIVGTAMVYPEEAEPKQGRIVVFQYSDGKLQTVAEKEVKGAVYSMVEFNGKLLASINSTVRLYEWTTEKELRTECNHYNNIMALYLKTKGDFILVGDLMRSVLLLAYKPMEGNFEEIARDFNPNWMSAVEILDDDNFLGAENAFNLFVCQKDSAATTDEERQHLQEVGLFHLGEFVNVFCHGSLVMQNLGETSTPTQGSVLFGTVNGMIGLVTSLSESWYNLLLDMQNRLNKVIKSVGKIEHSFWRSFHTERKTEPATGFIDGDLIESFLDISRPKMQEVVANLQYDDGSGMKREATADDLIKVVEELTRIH
FKBP12 / PPP3CA, sequence (P62942 whole entry, species assumed, other chains not shown): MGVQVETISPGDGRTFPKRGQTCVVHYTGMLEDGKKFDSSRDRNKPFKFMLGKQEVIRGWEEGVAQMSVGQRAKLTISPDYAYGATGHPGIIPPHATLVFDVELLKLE
FKBP12 / PPP3CA, sequence (P63098 2-170 partner limits assumed, species assumed, other chains not shown): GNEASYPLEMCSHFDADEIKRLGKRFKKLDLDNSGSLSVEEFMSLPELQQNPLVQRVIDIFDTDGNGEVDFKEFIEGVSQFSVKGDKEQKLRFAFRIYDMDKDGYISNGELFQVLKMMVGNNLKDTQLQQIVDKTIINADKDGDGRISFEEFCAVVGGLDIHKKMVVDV
gag-FKBP12 fusion protein, sequence (P62942 whole entry, the tested form may be a part): as the sequence (P62942 whole entry, species assumed, other chains not shown) above

As to `O=C1CC[C@H](N2Cc3c(OCc4ccc(CN5CCOCC5)cc4)cccc3C2=O)C(=O)N1` [CC-220], the “Compound-induced association of endogenous ASS1 with CRBN (result in words)” value at CRBN / ASS1 (HEK293T cells, 10 μM lenalidomide, 10 μM pomalidomide, 1 μM CC-220, versus DMSO) is “induced the association of endogenous ASS1 with CRBN”. Also, the “Fold change (LFQ intensity, compound versus DMSO) of target protein ASS1” value at CRBN / ASS1 (bait CRBN, 1 μM compound, HEK293T cells, VLPs isolated 24 h after compound addition, triplicate samples) stood at 3.31.
On to `C=CC[C@@H]1/C=C(\C)C[C@H](C)C[C@H](OC)[C@H]2O[C@@](O)(C(=O)C(=O)N3CCCC[C@H]3C(=O)O[C@H](/C(C)=C/[C@@H]3CC[C@@H](O)[C@H](OC)C3)[C@H](C)[C@@H](O)CC1=O)[C@H](C)C[C@@H]2OC` [FK506, tacrolimus], for which, on FKBP12 / PPP3CA (FK506 versus DMSO), the “FK506-induced enrichment of PPP3CA in gag-FKBP12 virus-like particles (result in words)” value is “enriched for the presence of PPP3CA”. The “Fold change (LFQ intensity, compound versus DMSO) of target protein PPP3CA” value at FKBP12 / PPP3CA (bait FKBP12, 1 μM compound) was 9.71.
On to `Nc1cccc2c1C(=O)N(C1CCC(=O)NC1=O)C2=O` (stereo not shown) [Pomalidomide, pomalidomide], for which, on CRBN / ASS1, the “Compound-induced association of endogenous ASS1 with CRBN (result in words)” value was “induced the association of endogenous ASS1 with CRBN” and the “Fold change (LFQ intensity, compound versus DMSO) of target protein ASS1” value came out at 2.01.
As to “gag-FKBP12 fusion protein (from UniProt P62942 1-108)”, the Fold change (LFQ intensity, compound versus DMSO) in experiment [1] is 9.71 fold.

Values taken from patent US20220026439A1, “PARTICLE BASED SMALL MOLECULE-PROTEIN COMPLEX TRAP” (priority 2018, published 2022).
